Measured values published in patent US20160095802A1, “COMBINATION OF PETROSELINIC ACID AND ZINC FOR ORAL ADMINISTRATION FOR HAIR AGING CONTROL” (NUTRICOS TECHNOLOGIES, priority 2013, published 2016).

System: Lipoxin A4 production in human mononuclear cells
Test: Lipoxin A4 production in stimulated human mononuclear blood cells in vitro (LC-MS of supernatants)
Assay type: cell-based
Conditions: coriander oil 0.25 mg/ml, zinc gluconate 0.005 mg/ml; 30 min pre-incubation, then 2 hours stimulation with phorbol myristate 0.05 μM + calcium ionophore 1 μM + DHA/EPA 1 μg/mL each; triplicates
Experimental: Mononuclear blood cells are cultured under 5% CO2 and at 37° C. in a serum-free medium for macrophages (SFM Macrophage; Invitrogen 12065074) for 24 hours. After this step, the medium is replaced with the same fresh test medium also containing the active agents at the various doses for 30 minutes in the presence of the various products to be evaluated (coriander oil 0.25 mg/ml, zinc gluconate ([…]. The inflammatory response was then triggered in the presence of phorbol myristate (0.05 μM) and calcium ionophore (1 μM) and a lipid substrate mixture composed of docosahexaenoic acid (DHA—1 μg/mL) and eicosapentaenoic acid (EPA—1 μg/mL).
The supernatants were then collected after 2 hours of stimulation and frozen at −80° C. before preparation for analysis by mass spectrometry.
Experimental triplicates (three wells) were prepared per experimental condition. Into each culture plate was placed a control corresponding to cells stimulated with the PMA/A23187 mixture and/or with addition of the equimolar mixture of fatty acids.
The thawed supernatants were concentrated by solid-phase extraction (SPE) and taken up in methanol before spectrometric analysis. The analytical method used consists in separating the various analytes by high-pressure liquid chromatography as a function of their retention time and in quantifying them by mass spectrometry. […]

Zinc gluconate
Level of lipoxin A4 production (% modulation relative to the control): −5%
